Strand notation (5' to 3'): a small letter for the sugar, then the base; units joined by * are phosphorothioate-linked, units joined directly phosphodiester-linked; [ ] holds rarer units or linkages, { } end groups; capitals alone tell only the bases. e = 2'-O-(2-methoxyethyl) (MOE); [5mC] = 5-methylcytosine; d = 2'-deoxy (DNA)

In series [1] the test system is PTP1B mRNA. Description: Dose response for human PTP1B in HuVEC cells, PPS 198 and PPS 3000 (Tables 86, 87). The format is cell-based. On the procedure: Human vascular endothelial (HuVEC) cells were plated at a density of 5000 cells per well and treated as described herein with nM concentrations of short antisense compound as indicated in Table 86. After the treatment period, RNA was isolated from the cells and PTP1B mRNA levels were measured by quantitative real-time PCR, as described herein. PTP1B mRNA levels were adjusted according to total RNA content as measured by RIBOGREEN®. Two different human PTP1B primer probe sets were used to measure mRNA levels. Results with Primer Probe Set (PPS) 198 are shown in Table 86, and results with Primer Probe Set (PPS) 3000 are shown in Table 87. Results are presented as percent inhibition of PTP1B mRNA expression relative to untreated control cells.

A short description of series [2]: Triglyceride, cholesterol and glucose levels, pre-bleed and post-bleed, GCGR study (Table 34). The format is in vivo, mouse. As to conditions: C57/BL6 mice, 48 hours after single i.p. dose. On the procedure:
Eight-week old male C57/BL6 mice (Jackson Laboratory, Bar Harbor, Me.) were administered a single dose of GCGR oligonucleotide by intraperitoneal injection at a concentration of […]. Each dose group consisted of four animals. Shown in Table 31 are the sequences, motifs and conjugates of the GCGR antisense compounds used in this study. Bolded residues indicate 2′-O-methoxyethyl (2′-MOE) moieties. All compounds comprise phosphorothioate internucleoside linkages throughout and each cytosine is replaced with 5-methylcytosine. ISIS 386626, ISIS 386627 and ISIS 386628 further comprise a C16 conjugate group attached to the 2′-O position of the sugar via a diamide linkage (2′-OCH2C(═O)N(H)(CH2)4N(H)C(═O)—(CH2)15CH3). GCGR antisense compounds target published GCGR sequences, including Genbank® Accession No. BC031885.1 (SEQ ID NO: 7).
Mice were sacrificed 48 hours following injection to determine serum transaminase levels (Table 32); liver, white adipose tissue (WAT), spleen and kidney weight (Table 33); cholesterol, triglyceride and glucose levels (Table 34); GCGR mRNA levels (Tables 35-41); and full-length and total oligonucleotide concentration in liver and kidney (Table 42). Endpoints were assessed using methods described herein and well known to those of ordinary skill in the art. Data is included from a pre-treatment bleed (Pre-Bleed) and post-treatment bleed (Post-Bleed).

In the case of “398105 (eT*eG*d[5mC]*dA*d[5mC]*dA*dG*dG*d[5mC]*dA*dG*dG*eT*eT) [compound 398105]”, the “% Inhibition” value was found to be 0% in series [1] (PPS 198, 1.11 nM); 25% in series [1] (PPS 198, 3.33 nM); 79% in series [1] (PPS 198, 10.0 nM); 90% in series [1] (PPS 198, 30.0 nM); 0% in series [1] (PPS 3000, 1.11 nM); 35% in series [1] (PPS 3000, 3.33 nM). Moreover, the “% Inhibition” value was 79% in series [1] (PPS 3000, 10.0 nM) and 93% in series [1] (PPS 3000, 30.0 nM).
With “398112 (e[5mC]*eA*dG*d[5mC]*d[5mC]*dT*dG*dG*d[5mC]*dA*d[5mC]*d[5mC]*eT*eA) [compound 398112]”, the “% Inhibition” value in series [1] (PPS 198, 1.11 nM) is on record as 1%; in series [1] (PPS 198, 3.33 nM), 10%; in series [1] (PPS 198, 10.0 nM), 73%; in series [1] (PPS 198, 30.0 nM), 93%; in series [1] (PPS 3000, 1.11 nM) it was 0%; in series [1] (PPS 3000, 3.33 nM) it was 26%. For the same substance, the “% Inhibition” value in series [1] (PPS 3000, 10.0 nM) was 77%; in series [1] (PPS 3000, 30.0 nM), 94%.
“398120 (eG*eT*dT*d[5mC]*dA*dA*dG*d[5mC]*dG*dG*d[5mC]*d[5mC]*eT*eA) [compound 398120]”: the “% Inhibition” value in series [1] (PPS 198, 1.11 nM) was 0%; in series [1] (PPS 198, 3.33 nM) it was 31%; in series [1] (PPS 198, 10.0 nM), 80%; in series [1] (PPS 198, 30.0 nM), 96%; in series [1] (PPS 3000, 1.11 nM), 0%; in series [1] (PPS 3000, 3.33 nM), 35%. In addition, the “% Inhibition” value is on record as 79% in series [1] (PPS 3000, 10.0 nM) and 93% in series [1] (PPS 3000, 30.0 nM).
For “398173 (e[5mC]*dA*dG*d[5mC]*d[5mC]*dT*dG*dG*dG*d[5mC]*dA*e[5mC]) [compound 398173]”, the “% Inhibition” value in series [1] (PPS 198, 1.11 nM) worked out at 0%; in series [1] (PPS 198, 3.33 nM) it was 4%; in series [1] (PPS 198, 10.0 nM), 80%; in series [1] (PPS 198, 30.0 nM), 97%; in series [1] (PPS 3000, 1.11 nM), 0%; in series [1] (PPS 3000, 3.33 nM) it was 18%. Also, the “% Inhibition” value in series [1] (PPS 3000, 10.0 nM) came to 80%; in series [1] (PPS 3000, 30.0 nM) it was 90%.
For “399096 (eT*eG*d[5mC]*dT*d[5mC]*dG*dA*dA*d[5mC]*dT*d[5mC]*d[5mC]*eT*eT; antisense) [compound 399096]”, the “% Inhibition” value in series [1] (PPS 198, 1.11 nM) worked out at 3%; in series [1] (PPS 198, 3.33 nM), 30%; in series [1] (PPS 198, 10.0 nM) it was 78%; in series [1] (PPS 198, 30.0 nM) it was 96%; in series [1] (PPS 3000, 1.11 nM), 0%; in series [1] (PPS 3000, 3.33 nM), 23%. The “% Inhibition” value in series [1] (PPS 3000, 10.0 nM) is 75%; in series [1] (PPS 3000, 30.0 nM), 94%.
With “399102 (eG*eA*dA*dG*dT*d[5mC]*dA*d[5mC]*dT*dG*dG*d[5mC]*eT*eT; antisense) [compound 399102]”, the “% Inhibition” value in series [1] (PPS 198, 1.11 nM) was 0%; in series [1] (PPS 198, 3.33 nM) it was 15%; in series [1] (PPS 198, 10.0 nM) it was 62%; in series [1] (PPS 198, 30.0 nM), 88%; in series [1] (PPS 3000, 1.11 nM), 0%; in series [1] (PPS 3000, 3.33 nM), 9%. Further, the “% Inhibition” value stood at 60% in series [1] (PPS 3000, 10.0 nM) and 87% in series [1] (PPS 3000, 30.0 nM).
For the substance “399113 (eG*eT*dT*dA*dG*dG*d[5mC]*dA*dA*dA*dG*dG*eG*e[5mC]; antisense) [compound 399113]”, the “% Inhibition” value in series [1] (PPS 198, 1.11 nM) is reported as 0%; in series [1] (PPS 198, 3.33 nM), 31%; in series [1] (PPS 198, 10.0 nM), 72%; in series [1] (PPS 198, 30.0 nM), 90%; in series [1] (PPS 3000, 1.11 nM), 0%; in series [1] (PPS 3000, 3.33 nM) it was 9%. Also, the “% Inhibition” value is recorded as 65% in series [1] (PPS 3000, 10.0 nM) and 90% in series [1] (PPS 3000, 30.0 nM).
On to “399132 (eG*eG*dG*d[5mC]*dT*dG*dA*dG*dT*dG*dA*d[5mC]*e[5mC]*e[5mC]; antisense) [compound 399132]”, for which the “% Inhibition” value is 0% in series [1] (PPS 198, 1.11 nM); 32% in series [1] (PPS 198, 3.33 nM); 75% in series [1] (PPS 198, 10.0 nM); 95% in series [1] (PPS 198, 30.0 nM); 0% in series [1] (PPS 3000, 1.11 nM); 26% in series [1] (PPS 3000, 3.33 nM). The “% Inhibition” value in series [1] (PPS 3000, 10.0 nM) stood at 76%; in series [1] (PPS 3000, 30.0 nM), 91%.
With “399173 (eA*eT*dG*d[5mC]*dT*dA*dG*dT*dG*d[5mC]*dA*d[5mC]*eT*eA; antisense) [compound 399173]”, the “% Inhibition” value in series [1] (PPS 198, 1.11 nM) was found to be 0%; in series [1] (PPS 198, 3.33 nM) it was 24%; in series [1] (PPS 198, 10.0 nM), 63%; in series [1] (PPS 198, 30.0 nM), 89%; in series [1] (PPS 3000, 1.11 nM), 0%; in series [1] (PPS 3000, 3.33 nM), 11%. Also, the “% Inhibition” value in series [1] (PPS 3000, 10.0 nM) worked out at 59%; in series [1] (PPS 3000, 30.0 nM) it was 92%.
“399208 (eA*eG*d[5mC]*dT*d[5mC]*dG*d[5mC]*dT*dA*d[5mC]*d[5mC]*dT*e[5mC]*eT; antisense) [compound 399208]”: the “% Inhibition” value was 0% in series [1] (PPS 198, 1.11 nM); 37% in series [1] (PPS 198, 3.33 nM); 86% in series [1] (PPS 198, 10.0 nM); 93% in series [1] (PPS 198, 30.0 nM); 0% in series [1] (PPS 3000, 1.11 nM); 47% in series [1] (PPS 3000, 3.33 nM). Also, the “% Inhibition” value is 85% in series [1] (PPS 3000, 10.0 nM) and 96% in series [1] (PPS 3000, 30.0 nM).
On to “399276 (eG*eA*dG*dG*dT*dA*dT*d[5mC]*d[5mC]*d[5mC]*dA*dT*e[5mC]*eT; antisense) [compound 399276]”, for which the “% Inhibition” value in series [1] (PPS 198, 1.11 nM) is listed as 0%; in series [1] (PPS 198, 3.33 nM) it was 8%; in series [1] (PPS 198, 10.0 nM), 61%; in series [1] (PPS 198, 30.0 nM) it was 89%; in series [1] (PPS 3000, 1.11 nM), 0%; in series [1] (PPS 3000, 3.33 nM), 14%. The “% Inhibition” value in series [1] (PPS 3000, 10.0 nM) is given as 64%; in series [1] (PPS 3000, 30.0 nM) it was 86%.
As for “399315 (antisense eG*eG*d[5mC]*dA*dA*d[5mC]*dT*dT*d[5mC]*dA*dA*d[5mC]*e[5mC]*eT) [compound 399315]”, the “% Inhibition” value came to 0% in series [1] (PPS 198, 1.11 nM); 20% in series [1] (PPS 198, 3.33 nM); 68% in series [1] (PPS 198, 10.0 nM); 88% in series [1] (PPS 198, 30.0 nM); 0% in series [1] (PPS 3000, 1.11 nM); 25% in series [1] (PPS 3000, 3.33 nM). Besides, the “% Inhibition” value is 71% in series [1] (PPS 3000, 10.0 nM) and 93% in series [1] (PPS 3000, 30.0 nM).
As to “ISIS 386628: GCGR short antisense compound with C16 conjugate group at 2′-O via diamide linkage (TGTCTTGCTGCTTT; chemistry not fully specified)”, in series [2], the “Glucose levels (post-bleed)” value is “decrease in post-bleed glucose levels”.

As a reminder, the % Inhibition is the percentage by which the read-out fell short of the control. A lower % Inhibition goes with a response near the control.
